The values that follow come from patent US10829520B2, “Beta-hairpin peptidomimetics” (POLYPHOR AG, priority 2015, dated 2020).

Where a SMILES comes first, the peptide text is derived from it. Bridges are numbered along the chain shown (N, C = ends). [ ]: non-standard residue; d: D form. Tle = CC(C)(C)[C@H](N)C(=O)O; dDab = NCC[C@@H](N)C(=O)O; Nle = CCCC[C@H](N)C(=O)O; Orn = NCCC[C@H](N)C(=O)O; Dab = NCC[C@H](N)C(=O)O; Dap = NC[C@H](N)C(=O)O; Aib = CC(C)(N)C(=O)O

Common to all, as to type: cell-based
For data set [1], the system named is Klebsiella pneumoniae SSI #3010. Conditions: SSI #3010. The method, boiled down: (§1)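 CLSI broth microdilution; MH-II (cation-adjusted) + 0.002% P-80; ~10^6 CFU/mL inoculum; peptide two-fold serial dilutions; 18-20 h, 35° C; MIC = no visible growth, μg/mL.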
Data set [2] has as its system Klebsiella pneumoniae 968733. The note with it: 968733.
Data set [3] concerns Acinetobacter baumannii DSM 30008. Conditions: DSM 30008. The procedure, abridged: as §1
The subject of data set [4] is Escherichia coli 926415. Conditions: 926415.
The subject of data set [5] is Acinetobacter baumannii 872842. The note with it: 872842.
For data set [6], the system named is Pseudomonas aeruginosa ATCC 27853. The note with it: ATCC 27853. The procedure, abridged: as §1
Data set [7] has as its system Escherichia coli ATCC 25922. The note with it: ATCC 25922. The procedure, abridged:
as §1

In data set [8] the test system is human red blood cells (hRBC). In words: Hemolysis of human red blood cells. The note with it: red cells of human, 1 h, 100 μg/mL. The procedure, abridged: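 hRBC washed 3× PBS; 20% v/v, ~0.9×10^9 cells/mL final. Peptide 100 μg/mL, 1 h, 37° C., 300 rpm. Spin, supernatant diluted 8×, OD540. 0% = PBS + 0.001% acetic acid; 100% = 2.5% Triton X-100. % hemolysis = OD540 peptide/OD540 full lysis × 100.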

Regarding `CCCC[C@@H]1NC(=O)[C@@H]2CCCN2C(=O)[C@H]2CCCN2C(=O)[C@H](CO)NC(=O)[C@H](C)NC(=O)[C@H](C(C)(C)C)NC(=O)[C@@H](NC(=O)[C@H](Cc2c[nH]c3ccccc23)NC(=O)[C@@H](N)[C@@H](C)O)CSSC[C@@H](C(=O)N[C@@H](CCN)C(=O)N[C@H](C(=O)N[C@@H](CCN)C(=O)N[C@H]2CCNC(=O)[C@H]([C@@H](C)O)NC(=O)[C@H](CCN)NC(=O)[C@H](CCN)NC(=O)[C@H](CC(C)C)NC(=O)[C@@H](Cc3ccccc3)NC(=O)[C@H](CCN)NC2=O)[C@@H](C)O)NC(=O)[C@H](Cc2ccc(O)cc2)NC(=O)[C@H](CO)NC1=O` [Ex. 43] (H-TWC[Tle]AS[dP]P[Nle]SYC[Dab]T[Dab][Dab][Dab][dF]L[Dab][Dab]T; disulfide 3-12; lactam 16-C), the “Klebsiella pneumoniae SSI #3010 MIC” value in data set [1] was found to be 0.25 µg/mL. Also, the “Klebsiella pneumoniae 968733 MIC” value in data set [2] turned out to be 0.5 µg/mL. The “Acinetobacter baumannii DSM 30008 MIC” value in data set [3] amounted to 0.5 µg/mL. Also, the “Escherichia coli 926415 MIC” value in data set [4] stood at 1.5 µg/mL. In addition, in data set [5], the “Acinetobacter baumannii 872842 MIC” value is 1.5 µg/mL. Moreover, the “Pseudomonas aeruginosa ATCC 27853 MIC” value in data set [6] worked out at 0.5 µg/mL. Besides, the “Escherichia coli ATCC 25922 MIC” value in data set [7] stood at 0.125 µg/mL. Moreover, the “Hemolysis at 100 μg/mL” value in data set [8] is 1%.
Regarding `CCCC[C@@H]1NC(=O)[C@@H]2CCCN2C(=O)[C@H]2CCCN2C(=O)[C@H](CO)NC(=O)[C@H](C)NC(=O)[C@H](C(C)(C)C)NC(=O)[C@@H](NC(=O)[C@H](Cc2c[nH]c3ccccc23)NC(=O)C(C)(C)N)CSSC[C@@H](C(=O)N[C@@H](CCN)C(=O)N[C@H](C(=O)N[C@@H](CCN)C(=O)N[C@H]2CCNC(=O)[C@H]([C@@H](C)O)NC(=O)[C@H](CCN)NC(=O)[C@H](CCN)NC(=O)[C@H](CC(C)C)NC(=O)[C@@H](Cc3ccccc3)NC(=O)[C@H](CCN)NC2=O)[C@@H](C)O)NC(=O)[C@H](Cc2ccc(O)cc2)NC(=O)[C@H](CO)NC1=O` [Ex. 44] (H-[Aib]WC[Tle]AS[dP]P[Nle]SYC[Dab]T[Dab][Dab][Dab][dF]L[Dab][Dab]T; disulfide 3-12; lactam 16-C), the “Klebsiella pneumoniae SSI #3010 MIC” value in data set [1] came out at 0.25 µg/mL. Also, the “Klebsiella pneumoniae 968733 MIC” value in data set [2] came out at 2 µg/mL. The “Acinetobacter baumannii DSM 30008 MIC” value in data set [3] amounted to 0.125 µg/mL. For the same molecule, the “Escherichia coli 926415 MIC” value in data set [4] was 0.25 µg/mL. Moreover, in data set [5], the “Acinetobacter baumannii 872842 MIC” value came out at 0.5 µg/mL. The “Pseudomonas aeruginosa ATCC 27853 MIC” value in data set [6] is 0.25 µg/mL. Besides, the “Escherichia coli ATCC 25922 MIC” value in data set [7] worked out at 0.125 µg/mL. Besides, the “Hemolysis at 100 μg/mL” value in data set [8] is reported as less than 1%.
With `CCCC[C@@H]1NC(=O)[C@@H]2CCCN2C(=O)[C@H]2CCCN2C(=O)[C@H](CO)NC(=O)[C@H](C)NC(=O)[C@H](C(C)(C)C)NC(=O)[C@@H](NC(=O)[C@@H](N)Cc2c[nH]c3ccccc23)CSSC[C@@H](C(=O)N[C@@H](CCCN)C(=O)N[C@@H](CCN)C(=O)N[C@H]2CCNC(=O)[C@H]([C@@H](C)O)NC(=O)[C@H](CCN)NC(=O)[C@H](CCN)NC(=O)[C@H](CC(C)C)NC(=O)[C@@H](Cc3ccccc3)NC(=O)[C@H](CCN)NC2=O)NC(=O)[C@H](Cc2ccc(O)cc2)NC(=O)[C@H](CO)NC1=O` [Ex. 45] (H-WC[Tle]AS[dP]P[Nle]SYC[Orn][Dab][Dab][Dab][dF]L[Dab][Dab]T; disulfide 2-11; lactam 14-C), the “Klebsiella pneumoniae SSI #3010 MIC” value in data set [1] was 0.125 µg/mL. Further, in data set [2], the “Klebsiella pneumoniae 968733 MIC” value was 0.25 µg/mL. Further, the “Acinetobacter baumannii DSM 30008 MIC” value in data set [3] is 0.125 µg/mL. The “Escherichia coli 926415 MIC” value in data set [4] came to 0.25 µg/mL. The “Acinetobacter baumannii 872842 MIC” value in data set [5] was 0.25 µg/mL. Besides, the “Pseudomonas aeruginosa ATCC 27853 MIC” value in data set [6] turned out to be 0.5 µg/mL. The “Escherichia coli ATCC 25922 MIC” value in data set [7] came out at 0.125 µg/mL. For the same molecule, the “Hemolysis at 100 μg/mL” value in data set [8] was found to be 1%.
With `CCCC[C@@H]1NC(=O)[C@@H]2CCCN2C(=O)[C@H]2CCCN2C(=O)[C@H](CO)NC(=O)[C@H](C)NC(=O)[C@H](C(C)(C)C)NC(=O)[C@@H](NC(=O)[C@H](Cc2c[nH]c3ccccc23)NC(C)=O)CSSC[C@@H](C(=O)N[C@@H](CCCN)C(=O)N[C@@H](CCN)C(=O)N[C@H]2CCNC(=O)[C@H]([C@@H](C)O)NC(=O)[C@H](CCN)NC(=O)[C@H](CCN)NC(=O)[C@H](CC(C)C)NC(=O)[C@@H](Cc3ccccc3)NC(=O)[C@H](CCN)NC2=O)NC(=O)[C@H](Cc2ccc(O)cc2)NC(=O)[C@H](CN)NC1=O` [Ex. 46] (Ac-WC[Tle]AS[dP]P[Nle][Dap]YC[Orn][Dab][Dab][Dab][dF]L[Dab][Dab]T; disulfide 2-11; lactam 14-C), the “Klebsiella pneumoniae SSI #3010 MIC” value in data set [1] came to 0.25 µg/mL. Also, the “Klebsiella pneumoniae 968733 MIC” value in data set [2] is 2 µg/mL. Besides, the “Acinetobacter baumannii DSM 30008 MIC” value in data set [3] is 0.25 µg/mL. The “Escherichia coli 926415 MIC” value in data set [4] is 0.5 µg/mL. In addition, in data set [5], the “Acinetobacter baumannii 872842 MIC” value stood at 0.5 µg/mL. Also, the “Pseudomonas aeruginosa ATCC 27853 MIC” value in data set [6] amounted to 2 µg/mL. In addition, the “Escherichia coli ATCC 25922 MIC” value in data set [7] was 0.125 µg/mL. Further, the “Hemolysis at 100 μg/mL” value in data set [8] is given as less than 1%.
Regarding `CCCC[C@@H]1NC(=O)[C@@H]2CCCN2C(=O)[C@H]2CCCN2C(=O)[C@H](CO)NC(=O)[C@H]([C@@H](C)O)NC(=O)[C@H](C(C)(C)C)NC(=O)[C@@H](NC(=O)[C@H](Cc2c[nH]c3ccccc23)NC(C)=O)CSSC[C@@H](C(=O)N[C@@H](CCCN)C(=O)N[C@@H](CCN)C(=O)N[C@H]2CCNC(=O)[C@H]([C@@H](C)O)NC(=O)[C@H](CCN)NC(=O)[C@H](CCN)NC(=O)[C@H](CC(C)C)NC(=O)[C@@H](Cc3ccccc3)NC(=O)[C@H](CCN)NC2=O)NC(=O)[C@H](Cc2ccc(O)cc2)NC(=O)[C@H](CO)NC1=O` [Ex. 47] (Ac-WC[Tle]TS[dP]P[Nle]SYC[Orn][Dab][Dab][Dab][dF]L[Dab][Dab]T; disulfide 2-11; lactam 14-C), in data set [1], the “Klebsiella pneumoniae SSI #3010 MIC” value stood at 0.5 µg/mL. The “Klebsiella pneumoniae 968733 MIC” value in data set [2] is 1 µg/mL. In addition, the “Acinetobacter baumannii DSM 30008 MIC” value in data set [3] is 0.25 µg/mL. Further, the “Escherichia coli 926415 MIC” value in data set [4] turned out to be 0.5 µg/mL. The “Acinetobacter baumannii 872842 MIC” value in data set [5] was found to be 0.5 µg/mL. Moreover, the “Pseudomonas aeruginosa ATCC 27853 MIC” value in data set [6] was 0.5 µg/mL. Moreover, the “Escherichia coli ATCC 25922 MIC” value in data set [7] amounted to 0.25 µg/mL. Further, the “Hemolysis at 100 μg/mL” value in data set [8] is given as 1%.
In the case of `CCCC[C@@H]1NC(=O)[C@@H]2CCCN2C(=O)[C@H]2CCCN2C(=O)[C@H](CO)NC(=O)[C@H](C)NC(=O)[C@H](C(C)(C)C)NC(=O)[C@@H](NC(=O)[C@H](Cc2c[nH]c3ccccc23)NC(C)=O)CSSC[C@@H](C(=O)N[C@@H](CCCN)C(=O)N[C@@H](CCN)C(=O)N[C@H]2CCNC(=O)[C@H]([C@@H](C)O)NC(=O)[C@H](CCN)NC(=O)[C@H](CCN)NC(=O)[C@H](CC(C)C)NC(=O)[C@@H](Cc3ccccc3)NC(=O)[C@H](CCN)NC2=O)NC(=O)[C@H](Cc2ccc(O)cc2)NC(=O)[C@H](CO)NC1=O` [Ex. 48] (Ac-WC[Tle]AS[dP]P[Nle]SYC[Orn][Dab][Dab][Dab][dF]L[Dab][Dab]T; disulfide 2-11; lactam 14-C), the “Klebsiella pneumoniae SSI #3010 MIC” value in data set [1] was determined as 0.25 µg/mL. Besides, the “Klebsiella pneumoniae 968733 MIC” value in data set [2] is 1 µg/mL. In addition, the “Acinetobacter baumannii DSM 30008 MIC” value in data set [3] was 0.5 µg/mL. The “Escherichia coli 926415 MIC” value in data set [4] turned out to be 0.25 µg/mL. For the same molecule, the “Acinetobacter baumannii 872842 MIC” value in data set [5] came out at 0.5 µg/mL. The “Pseudomonas aeruginosa ATCC 27853 MIC” value in data set [6] is 1 µg/mL. The “Escherichia coli ATCC 25922 MIC” value in data set [7] turned out to be 0.125 µg/mL. The “Hemolysis at 100 μg/mL” value in data set [8] amounted to 2%.
For the molecule `CCCC[C@@H]1NC(=O)[C@@H]2CCCN2C(=O)[C@H]2CCCN2C(=O)[C@H](CO)NC(=O)[C@H](C)NC(=O)[C@H](C(C)(C)C)NC(=O)[C@@H](NC(=O)[C@H](Cc2c[nH]c3ccccc23)NC(C)=O)CSSC[C@@H](C(=O)N[C@@H](CCCN)C(=O)N[C@H](CCN)C(=O)N[C@H]2CCNC(=O)[C@H]([C@@H](C)O)NC(=O)[C@H](CCN)NC(=O)[C@H](CCN)NC(=O)[C@H](CC(C)C)NC(=O)[C@@H](Cc3ccccc3)NC(=O)[C@H](CCN)NC2=O)NC(=O)[C@H](Cc2ccc(O)cc2)NC(=O)[C@H](CO)NC1=O` [Ex. 49] (Ac-WC[Tle]AS[dP]P[Nle]SYC[Orn][dDab][Dab][Dab][dF]L[Dab][Dab]T; disulfide 2-11; lactam 14-C), the “Klebsiella pneumoniae SSI #3010 MIC” value in data set [1] came to 0.5 µg/mL. Also, the “Klebsiella pneumoniae 968733 MIC” value in data set [2] turned out to be 1 µg/mL. Also, the “Acinetobacter baumannii DSM 30008 MIC” value in data set [3] came out at 0.25 µg/mL. Besides, in data set [4], the “Escherichia coli 926415 MIC” value turned out to be 0.5 µg/mL. Further, the “Acinetobacter baumannii 872842 MIC” value in data set [5] worked out at 1 µg/mL. Besides, the “Pseudomonas aeruginosa ATCC 27853 MIC” value in data set [6] came out at 1 µg/mL. In data set [7], the “Escherichia coli ATCC 25922 MIC” value is 0.25 µg/mL. Besides, the “Hemolysis at 100 μg/mL” value in data set [8] is recorded as less than 1%.
